Laboratory results: US10058550B2, “Methods of treating heart failure” (priority 2015, dated 2018)
pEC50: −log10 of the molar value.

Molecular target: human APJ receptor (Homo sapiens (Human), UniProt P35414)
Test: biochemical
Type: biochemical
Details: read-out: Activity hAPJ SPA EC50 IP
How it was run: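 Membranes from CHO cells stably expressing cloned human APJ were incubated with WGA SPA beads in 20 mM HEPES pH 7.5, 5 mM MgCl2, 0.1% BSA, 200 mM NaCl and 3 μM GDP. Reaction started with 0.2 nM [35S]GTPγS ± ligands, 90 min at RT. EC50 obtained by non-linear regression as mean of independent experiments.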

Sequence of human APJ receptor (P35414 whole entry): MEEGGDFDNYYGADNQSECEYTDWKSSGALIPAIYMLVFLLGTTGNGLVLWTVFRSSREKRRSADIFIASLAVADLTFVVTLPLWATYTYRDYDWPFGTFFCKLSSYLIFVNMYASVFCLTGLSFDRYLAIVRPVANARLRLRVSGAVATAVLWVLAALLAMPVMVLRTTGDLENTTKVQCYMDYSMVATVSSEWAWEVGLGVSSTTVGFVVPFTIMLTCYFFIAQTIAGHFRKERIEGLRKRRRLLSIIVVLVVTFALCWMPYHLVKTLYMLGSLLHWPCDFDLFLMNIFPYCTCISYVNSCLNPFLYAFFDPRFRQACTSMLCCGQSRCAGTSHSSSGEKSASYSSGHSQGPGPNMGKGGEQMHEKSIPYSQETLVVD

Q: How did the pEC50 turn out when `COc1cccc(OC)c1-n1c(NS(=O)(=O)[C@H](C)[C@@H](OC)c2ccc(Cl)cn2)nnc1-c1cccnc1` (single isomer, unassigned) [Example 530.0, (1S,2R)-1-(5-chloro-2-pyridinyl)-N-(4-(2,6-dimethoxyphenyl)-5-(3-pyridinyl)-4H-1,2,4-triazol-3-yl)-1-methoxy-2-propanesulfonamide or (1R,2S)-1-(5-chloro-2-pyridinyl)-N-(4-(2,6-dimethoxyphenyl)-5-(3-pyridinyl)-4H-1,2,4-triazol-3-yl)-1-methoxy-2-propanesulfonamide] was run?
A: 7.31

Q: `COc1cccc(OC)c1-n1c(NS(=O)(=O)[C@@H](C)[C@@](C)(F)c2ncc(C#N)cn2)nnc1-c1cncc(C)c1` (single isomer, unassigned) [Example 537.0] was tested. Which pEC50 did it give?
A: 7.24

Q: With `COc1cccc(OC)c1-n1c(NS(=O)(=O)[C@@H](C)[C@@](C)(F)c2ncc(C#N)cn2)nnc1-c1cncc(C)c1` (single isomer, unassigned) [Example 538.0] as the compound, how does the pEC50 read?
A: 8.35

Q: `COc1cccc(OC)c1-n1c(NS(=O)(=O)[C@H](C)[C@@H](OC)c2ccc(C#N)cn2)nnc1-c1cncc(C)c1` (single isomer, unassigned) [Example 552.0] was tested. Which pEC50 did it give?
A: 9.55

Q: With `COc1cccc(OC)c1-n1c(NS(=O)(=O)[C@H](C)[C@@H](OC)c2ccc(C#N)cn2)nnc1-c1cncc(C)c1` (single isomer, unassigned) [Example 553.0] as the compound, how does the pEC50 read?
A: 7.39

Q: With `COc1cccc(OC)c1-n1c(NS(=O)(=O)[C@H](C)[C@@H](OC)c2ccc(C#N)cn2)nnc1-c1cncc(C)c1` (single isomer, unassigned) [Example 554.0] as the compound, how does the pEC50 read?
A: 8.57

Q: How did the pEC50 turn out when `COc1cccc(OC)c1-n1c(NS(=O)(=O)[C@H](C)[C@@H](OC)c2ccc(C#N)cn2)nnc1-c1cncc(C)c1` (single isomer, unassigned) [Example 555.0] was run?
A: 7.39

Q: `COc1cccc(OC)c1-n1c(NS(=O)(=O)[C@H](C)[C@@H](OC)c2ncc(Cl)cn2)nnc1-c1cncc(C)c1` (single isomer, unassigned) [Example 558.0] was tested. Which pEC50 did it give?
A: 7.52

Q: How did the pEC50 turn out when `COc1cccc(OC)c1-n1c(NS(=O)(=O)[C@H](C)[C@@H](OC)c2ncc(Cl)cn2)nnc1-c1cncc(C)c1` (single isomer, unassigned) [Example 559.0] was run?
A: 6.92

Q: How did the pEC50 turn out when `COc1cccc(OC)c1-n1c(NS(=O)(=O)[C@H](C)[C@@H](OC)c2ncc(Cl)cn2)nnc1-c1cncc(C)c1` (single isomer, unassigned) [Example 560.0] was run?
A: 9.06

Q: `CCO[C@@H](c1cnc(C)cn1)[C@@H](C)S(=O)(=O)Nc1nnc(-c2cncc(C)c2)n1-c1c(OC)cccc1OC` (single isomer, unassigned) [Example 565.0, (1S,2R)—N-(4-(2,6-dimethoxyphenyl)-5-(5-methyl-3-pyridinyl)-4H-1,2,4-triazol-3-yl)-1-ethoxy-1-(5-methyl-2-pyrazinyl)-2-propanesulfonamide or (1R,2S)—N-(4-(2,6-dimethoxyphenyl)-5-(5-methyl-3-pyridinyl)-4H-1,2,4-triazol-3-yl)-1-ethoxy-1-(5-methyl-2-pyrazinyl)-2-propanesulfonamide] was tested. Which pEC50 did it give?
A: 7.00

Q: With `CCO[C@@H](c1cnc(C)cn1)[C@@H](C)S(=O)(=O)Nc1nnc(-c2cncc(C)c2)n1-c1c(OC)cccc1OC` (single isomer, unassigned) [Example 566.0, (1S,2R)—N-(4-(2,6-dimethoxyphenyl)-5-(5-methyl-3-pyridinyl)-4H-1,2,4-triazol-3-yl)-1-ethoxy-1-(5-methyl-2-pyrazinyl)-2-propanesulfonamide or (1R,2S)—N-(4-(2,6-dimethoxyphenyl)-5-(5-methyl-3-pyridinyl)-4H-1,2,4-triazol-3-yl)-1-ethoxy-1-(5-methyl-2-pyrazinyl)-2-propanesulfonamide] as the compound, how does the pEC50 read?
A: 7.21

Q: `COc1cccc(OC)c1-n1c(NS(=O)(=O)[C@H](C)[C@@H](O)c2cnc(C)cn2)nnc1-c1cncc(C)c1` (single isomer, unassigned) [Example 568.0, (1S,2R)—N-(4-(2,6-dimethoxyphenyl)-5-(5-methyl-3-pyridinyl)-4H-1,2,4-triazol-3-yl)-1-hydroxy-1-(5-methyl-2-pyrazinyl)-2-propanesulfonamide or (1R,2S)—N-(4-(2,6-dimethoxyphenyl)-5-(5-methyl-3-pyridinyl)-4H-1,2,4-triazol-3-yl)-1-hydroxy-1-(5-methyl-2-pyrazinyl)-2-propanesulfonamide] was tested. Which pEC50 did it give?
A: 8.15

Q: How did the pEC50 turn out when `COc1cccc(OC)c1-n1c(NS(=O)(=O)[C@H](C)[C@@H](O)c2cnc(C)cn2)nnc1-c1cncc(C)c1` (single isomer, unassigned) [Example 569.0, (1S,2R)—N-(4-(2,6-dimethoxyphenyl)-5-(5-methyl-3-pyridinyl)-4H-1,2,4-triazol-3-yl)-1-hydroxy-1-(5-methyl-2-pyrazinyl)-2-propanesulfonamide or (1R,2S)—N-(4-(2,6-dimethoxyphenyl)-5-(5-methyl-3-pyridinyl)-4H-1,2,4-triazol-3-yl)-1-hydroxy-1-(5-methyl-2-pyrazinyl)-2-propanesulfonamide] was run?
A: 9.59

Q: How did the pEC50 turn out when `COc1cccc(-c2nnc(NS(=O)(=O)[C@@H](C)[C@H](O)c3cnc(C)cn3)n2-c2c(OC)cccc2OC)n1` (single isomer, unassigned) [Example 577.0, (1R,2S)—N-(4-(2,6-dimethoxyphenyl)-5-(6-methoxy-2-pyridinyl)-4H-1,2,4-triazol-3-yl)-1-hydroxy-1-(5-methyl-2-pyrazinyl)-2-propanesulfonamide or (1S,2R)—N-(4-(2,6-dimethoxyphenyl)-5-(6-methoxy-2-pyridinyl)-4H-1,2,4-triazol-3-yl)-1-hydroxy-1-(5-methyl-2-pyrazinyl)-2-propanesulfonamide] was run?
A: 9.62

Q: `COc1cccc(-c2nnc(NS(=O)(=O)[C@@H](C)[C@H](O)c3cnc(C)cn3)n2-c2c(OC)cccc2OC)n1` (single isomer, unassigned) [Example 578.0, (1R,2S)—N-(4-(2,6-dimethoxyphenyl)-5-(6-methoxy-2-pyridinyl)-4H-1,2,4-triazol-3-yl)-1-hydroxy-1-(5-methyl-2-pyrazinyl)-2-propanesulfonamide or (1S,2R)—N-(4-(2,6-dimethoxyphenyl)-5-(6-methoxy-2-pyridinyl)-4H-1,2,4-triazol-3-yl)-1-hydroxy-1-(5-methyl-2-pyrazinyl)-2-propanesulfonamide] was tested. Which pEC50 did it give?
A: 8.57

Q: `COc1cccc(-c2nnc(NS(=O)(=O)[C@@H](C)[C@@H](O)c3ncc(C)cn3)n2-c2c(OC)cccc2OC)n1` (single isomer, unassigned) [Example 583.0] was tested. Which pEC50 did it give?
A: 9.72

Q: How did the pEC50 turn out when `CCO[C@@H](c1ncc(Cl)cn1)[C@H](C)S(=O)(=O)Nc1nnc(-c2cncc(C)c2)n1-c1c(OC)cccc1OC` (single isomer, unassigned) [Example 609.0] was run?
A: 8.03

Q: With `CCO[C@@H](c1ncc(Cl)cn1)[C@H](C)S(=O)(=O)Nc1nnc(-c2cncc(C)c2)n1-c1c(OC)cccc1OC` (single isomer, unassigned) [Example 611.0] as the compound, how does the pEC50 read?
A: 9.72

Q: `CCO[C@@H](c1ncc(Cl)cn1)[C@H](C)S(=O)(=O)Nc1nnc(-c2cncc(C)c2)n1-c1c(OC)cccc1OC` (single isomer, unassigned) [Example 612.0] was tested. Which pEC50 did it give?
A: 7.89

Q: With `COc1cccc(OC)c1-n1c(NS(=O)(=O)[C@@H](C)[C@H](OC)c2ccc(F)cc2C#N)nnc1-c1cncc(C)c1` (single isomer, unassigned) [Example 623.0] as the compound, how does the pEC50 read?
A: 6.89
